Where a name gives a salt, the structure may show the parent alone.

The assay concerns the target T1, thromboxane synthetase (Rattus norvegicus, UniProt P49430).
T1 construct: The platelets were isolated by centrifuging the PRP for 10 minutes; endogenous in cells; host or cells: washed platelets from arterial blood of Okamoto-Aoki spontaneously hypertensive rats (rats from Taconic Farms)
T1 sequence (P49430 1-533): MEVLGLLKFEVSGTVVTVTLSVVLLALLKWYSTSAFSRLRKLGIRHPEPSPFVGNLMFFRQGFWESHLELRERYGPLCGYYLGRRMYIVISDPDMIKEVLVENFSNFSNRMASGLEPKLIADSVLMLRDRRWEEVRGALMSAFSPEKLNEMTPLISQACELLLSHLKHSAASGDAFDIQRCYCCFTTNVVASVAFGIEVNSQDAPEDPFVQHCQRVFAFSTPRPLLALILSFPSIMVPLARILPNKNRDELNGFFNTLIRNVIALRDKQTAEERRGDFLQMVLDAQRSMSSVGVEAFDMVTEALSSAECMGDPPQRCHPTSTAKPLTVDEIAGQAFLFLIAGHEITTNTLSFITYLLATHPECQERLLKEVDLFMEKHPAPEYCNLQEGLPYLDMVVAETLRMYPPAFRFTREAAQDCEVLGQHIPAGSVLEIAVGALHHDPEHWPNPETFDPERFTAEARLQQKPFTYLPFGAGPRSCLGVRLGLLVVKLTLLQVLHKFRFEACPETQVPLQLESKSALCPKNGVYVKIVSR
Put plainly: Inhibition of thromboxane (TXB2) formation in washed rat platelets, TXB2 by direct radioimmunoassay. The format is cell-based, Okamoto-Aoki spontaneously hypertensive rats (SHR). The settings on record: 10 min; Dose 10^-4 (unit inferred); SHR platelet suspension, 10 minutes at 37° C. As to the method:
Under urethan anesthesia, […] of arterial blood was collected in one ml. of 3.2% sodium citrate in a polystyrene tube from Okamoto-Aoki spontaneously hypertensive rats (SHR) (Taconic Farms, Germantown, NY) between 19 and 24 weeks in age. The blood was diluted with 3 ml. cold saline and centrifuged at room temperature for 15 minutes at 460×g. The platelet rich plasma (PRP) was separated. The platelets were isolated by centrifuging the PRP for 10 minutes at 1060×g and were washed in 4 ml. cold oxygenated Krebs phosphate buffer, pH 7.4. The chilled patelets recovered from centrifuging at 800×g for 10 minutes were resuspended in oxygenated Krebs phosphate buffer and diluted to contain 4.5-6.0×10^4 platelets/μl.
The inhibition of thromboxane (TX) formation was studied by determining the […] of thromboxane B2 (TXB2), the stable hydrolysis product of TXA2. Assay samples, prepared on ice, contained 200 μl platelet suspension, 50 μl saline, and 50 μl vehicle or drug under study (OKY-1581, UK-37248-01, 1-benzylimidazole, or indomethacin). The samples were incubated for 10 minutes at 37° C. in a metabolic shaker. The reaction was terminated by immersing the tubes in an ice bath and adding 50 μl of 0.5M citric acid. The samples were centrifuged for 10 minutes in a refrigerated centrifuge and the supernatants thus obtained were decanted and stored at -20° C. The TXB2 content for each sample was determined by a direct radioimmunoassay (RIA) utilizing a TXB2 specific RIA kit purchased from New England Nuclear, Boston, MA and expressed as pg TXB2 formed minute^-1 sample^-1, from which the percent inhibition of TXB2 formation was calculated.
In general, inhibition refers to the drop in the measured response relative to a control, in per cent. `O=C1c2ccccc2C(=O)N1CCCCCn1ccnc1` [2-[5-(1H--imidazol-1-yl)pentyl]-1H--isoindole-1,3(2H)--dione]: the inhibition at 100 µM worked out at 92%.

For the compound `O=C(NCCCn1cnc(-c2ccccc2)c1)c1ccc(Br)cc1` [4-Bromo-N-[3-(4-phenyl-1H-imidazol-1-yl)propyl]benzamide], the inhibition at 100 µM is 66%.

`CSc1ccc(C(=O)NCCCn2ccnc2)cc1` [N--[3-(1H--imidazol-1-yl)propyl]-4-(methylthio)-benzamide]: the inhibition at 100 µM came to 102%.

In the case of `CNc1ccccc1C(=O)NCCCn1ccnc1` [N--[3-(1H--imidazol-1-yl)propyl]-2-methylaminobenzamide], the inhibition at 100 µM amounted to 57%.

As for `Cc1ccc(CC(=O)NCCCn2cnc(C)c2)cc1` [4-methyl-N--[3-(4-methyl-1H--imidazol-1-yl)propyl]phenylacetamide], the inhibition at 100 µM was 76%.

As to `O=C(NCCCCn1ccnc1)c1ccc(Cl)c(Cl)c1` [3,4-Dichloro-N-[4-(1H-imidazol-1-yl)butyl]benzamide], the inhibition at 100 µM came out at 100%.

Turning to `CN(C)c1ccc(C(=O)NCCCn2ccnc2)cc1` [N--[3-(1H--imidazol-1-yl)propyl]-4-(dimethylamino)benzamide], the inhibition at 100 µM is 93%.

For the compound `CC(CNC(=O)c1ccc(Cl)cc1)Cn1ccnc1` (centres unmarked) [4-chloro-N--[3-(1H--imidazol-1-yl)-2-methylpropyl]benzamide fumarate], the inhibition at 100 µM is 100%.

On to `O=C(NCCn1ccnc1)c1ccc(Cl)c(Cl)c1` [3,4-dichloro-N--[2-(1H--imidazol-1-yl)ethyl]benzamide], for which the inhibition at 100 µM came to 58.5%.

With `O=C(NCCCn1ccnc1)C(c1ccccc1)c1ccccc1` [N-[3-(1H-imidazol-1-yl)propyl]diphenylacetamide], the inhibition at 100 µM came out at 84%.

Turning to `CCNc1ccccc1C(=O)NCCCn1ccnc1` [2-ethylamino-N--[3-(1H--imidazol-1-yl)propyl]benzamide], the inhibition at 100 µM turned out to be 86%.

As to `CC(=O)Nc1ccc(C(=O)NCCCn2ccnc2)cc1` [4-(acetylamino)-N--[3-(1H--imidazol-1-yl)propyl]benzamide], the inhibition at 100 µM was 98.7%.

Take `O=C(NCCCn1ccnc1)c1ccc(F)cc1` [4-fluoro-N--[3-(1H--imidazol-1-yl)propyl]benzamide]: the inhibition at 100 µM worked out at 87.1%.

In the case of `O=C(NCCCn1ccnc1)c1ccccc1F` [2-fluoro-N--[3-(1H--imidazol-l-yl)propyl]benzamide], the inhibition at 100 µM came out at 83.9%.

In the case of `O=C(NC(CCn1ccnc1)c1ccccc1)c1ccc(Br)cc1` (centres unmarked) [4-bromo-N--[3-(1H--imidazol-1-yl)-1-phenylpropyl]benzamide], the inhibition at 100 µM came out at 100%.

Regarding `CC(CCNC(=O)c1ccc(Cl)cc1)n1ccnc1` (centres unmarked) [4-chloro-N--[3-(1H--imidazol-1-yl)butyl]benzamide], the inhibition at 100 µM is 96%.

`Cc1cn(CCCNC(=O)c2cccc(Br)c2)cn1` [3-bromo-N--[3-(4-methyl-1H--imidazol-1-yl)propyl]benzamide]: the inhibition at 100 µM came out at 93%.

For the compound `O=C(Cc1ccc(F)cc1)NCCCn1ccnc1` [4-fluoro-N--[3-(1H--imidazol-1-yl)propyl]benzeneacetamide, fumarate], the inhibition at 100 µM is 53.1%.

Take `O=C(COc1ccccc1)NCCCn1ccnc1` [N-[3-(1H-Imidazol-1-yl)propyl]-2-phenoxyacetamide]: the inhibition at 100 µM amounted to 86.2%.

In the case of `O=C(COc1cccc(Cl)c1Cl)NCCCn1ccnc1` [2-(2,3-dichlorophenoxy)-N--[3-(1H--imidazol-1-yl)propyl]acetamide, fumarate], the inhibition at 100 µM was 100%.

As for `O=C(NCCCn1ccnc1)c1ccccc1Cl` [2-chloro-N--[3-(1H--imidazol-1-yl)propyl]benzamide], the inhibition at 100 µM was found to be 99.7%.

As to `O=C(NCCCn1ccnc1)C(=O)c1ccccc1` [N-[3-(1H-Imidazol-1-yl)propyl]-α-oxo-benzeneacetamide, fumarate], the inhibition at 100 µM came out at 79.7%.

For `O=C(NCCCn1ccnc1)C1c2ccccc2-c2ccccc21` [N--[3-(1H--imidazol-1-yl)propyl]-9H--fluorene-9-carboxamide], the inhibition at 100 µM came out at 100%.

For `CC(CCNC(=O)c1cccc(Cl)c1)n1ccnc1` (centres unmarked) [3-chloro-N--[3-(1H--imidazol-1-yl)butyl]benzamide], the inhibition at 100 µM amounted to 93%.

As for `CC(CCNC(=O)c1ccc(Br)cc1)n1ccnc1` (centres unmarked) [4-bromo-N--[3-(1H--imidazol-1-yl)butyl]benzamide], the inhibition at 100 µM came out at 91%.

As to `O=C(NCCCn1ccnc1)c1ccc(I)cc1` [N--[3-(1H--imidazol-1-yl)propyl]-4-iodobenzamide], the inhibition at 100 µM turned out to be 96.7%.

With `Cc1cn(CCCNC(=O)c2ccc(I)cc2)cn1` [4-iodo-N--[3-(4-methyl-1H--imidazol-1-yl)propyl]benzamide], the inhibition at 100 µM was determined as 99%.

Turning to `O=C(NCCCn1ccnc1)c1ccc(-c2ccccc2)cc1` [N--[3-(1H--imidazol-1-yl)propyl][1,1'-biphenyl]-4-carboxamide], the inhibition at 100 µM turned out to be 106%.

In the case of `CS(=O)(=O)c1ccc(C(=O)NCCCn2ccnc2)cc1` [N--[3-(1H--imidazol-1-yl)propyl]-4-(methylsulfonyl)benzamide], the inhibition at 100 µM was found to be 80.1%.

For the compound `O=C(COc1ccc(Cl)cc1)NCCCn1ccnc1` [2-(4-chlorophenoxy)-N--[3-(1H--imidazol-1-yl)propyl]acetamide], the inhibition at 100 µM came to 84.6%.

On to `COc1ccc(C(=O)NCCCn2ccnc2)cc1` [N--[3-(1H--imidazol-1-yl)propyl]-4-methoxybenzamide], for which the inhibition at 100 µM is 88.9%.

Turning to `N#Cc1ccc(C(=O)NCCCn2ccnc2)cc1` [4-cyano-N--[3-(1H--imidazol-1-yl)propyl]benzamide], the inhibition at 100 µM was 90.7%.

Consider `O=C(NCCCCn1ccnc1)c1cccc2ccccc12` [N--[4-(1H--imidazol-1-yl)butyl]-naphthalene-1-carboxamide], for which the inhibition at 100 µM was 95%.

In the case of `Cc1ccc(C(=O)NCCCn2ccnc2)cc1` [N--[3-(1H--imidazol-1-yl)propyl]-4-methylbenzamide], the inhibition at 100 µM turned out to be 83.2%.

With `O=C(NCCCn1ccnc1)c1ccc(Cl)c(Cl)c1` [3,4-dichloro-N--[3-(1H--imidazol-1-yl)propyl]benzamide], the inhibition at 100 µM was 92.7%.

In the case of `O=C(NCCCn1ccnc1)c1cccc(F)c1` [3-fluoro-N--[3-(1H--imidazol-1-yl)propyl]benzamide], the inhibition at 100 µM was found to be 95.8%.

For the compound `CC(=O)c1ccc(C(=O)NCCCn2ccnc2)cc1` [4-acetyl-N--[3-(1H--imidazol-1-yl)propyl]benzamide], the inhibition at 100 µM is 89.5%.

With `COc1cc(C(=O)NCCCn2ccnc2)cc(OC)c1OC` [N--[3-(1H--imidazol-1-yl)propyl]-3,4,5-trimethoxybenzamide], the inhibition at 100 µM was found to be 101%.

For `O=C(NCCCn1ccnc1)c1cccc(C(F)(F)F)c1` [3-trifluoromethyl-N--[3-(1H--imidazol-1-yl)propyl]benzamide], the inhibition at 100 µM stood at 84%.

Regarding `O=C(NC(CCn1ccnc1)c1ccccc1)c1ccc(Cl)cc1` (centres unmarked) [4-chloro-N--[3-(1H--imidazol-1-yl)-1-phenylpropyl]benzamide], the inhibition at 100 µM was 100%.

For `O=C(NCCCn1ccnc1)c1ccc(C(=O)c2ccccc2)cc1` [4-benzoyl-N--[3-(1H--imidazol-1-yl)propyl]benzamide], the inhibition at 100 µM was 103%.

The values above are taken from patent US4568687A, “N-[2-4-(1H-Imidazol-1-yl)alkyl]-arylamides and pharmaceutical compositions” (American Cyanamid Company, priority 1984, dated 1986).
